Experimental data as given in patent publication US8591954B2, “Phospholipid-based inhalation system” (Next Breath, LLC, priority 2006, dated 2013).
“Also recorded” adds a separate entry of the source.

What was measured:
A549 cells = test: Migration of latex beads on A549 cell surface after application of surfactant (microgrid / semi-automated counting); assay type: cell-based; conditions: 4.5 μm latex beads on A549 cells, CELLocate microgrid, surfactant applied directly; p<0.05, ANOVA; water control showed no migration
From the text: A particularly preferred embodiment of the present invention comprises the identification of molecules to be used in the pMDI to push the medication deeper into the lungs. For this purpose an in vitro technique to visualize and monitor migration of latex beads placed on tissue cells after application of the appropriate surfactant may be used. […] K. Fumoto, […]. […] The microgrid coverslips can be used to monitor and quantify bead movement on cell surfaces reflecting similar characteristics to tracheal and pulmonary tissues. […] The movement of latex beads may then be monitored by counting the beads before adding the surfactant and then again after allowing the surfactant to spread for a period of time (for example 10 seconds). […] The effect of pMDI-delivered surfactant, e.g., PTC, Survanta®, on latex bead movement can be determined using the above cell model. […] Beads in 220 μm^2 virtual square grids along a 220×11,000 μm lane (50 grids in total), predefined using the automated stage controller coupled to the microscope, can be counted and quantified, before (initial) and after (final) application of surfactant. Bead migration along an extended lane can then be monitored. […]

[1] = 25° C.; cited from earlier work

Molecule	migration of latex beads (bead count ratio Final:Initial) (A549 cells)	dielectric constant [1]
Phosphatidylcholine [PTC]	significant migration of latex beads; also recorded: significantly migrate	
FC(C(F)(F)F)C(F)(F)F [HFA-227]		3.94
